Measured values published in patent publication US20040171680A1, “Treating Syndrome X with substituted tetralins and indanes” (priority 2002, published 2004).
pEC50: −log10 of the molar value.

Experiments:
PPARγ = target: T1, PPARγ (Homo sapiens, UniProt P37231); assay: aP2 Assay for PPAR gamma Agonists (bDNA aP2 mRNA in preadipocytes); assay type: cell-based; details: values in square brackets
T1 construct: Following the challenge of the preadipocytes, cells may be lysed with lysis buffer; endogenous in cells; host or cells: preadipocytes
T1 sequence (P37231 1-505): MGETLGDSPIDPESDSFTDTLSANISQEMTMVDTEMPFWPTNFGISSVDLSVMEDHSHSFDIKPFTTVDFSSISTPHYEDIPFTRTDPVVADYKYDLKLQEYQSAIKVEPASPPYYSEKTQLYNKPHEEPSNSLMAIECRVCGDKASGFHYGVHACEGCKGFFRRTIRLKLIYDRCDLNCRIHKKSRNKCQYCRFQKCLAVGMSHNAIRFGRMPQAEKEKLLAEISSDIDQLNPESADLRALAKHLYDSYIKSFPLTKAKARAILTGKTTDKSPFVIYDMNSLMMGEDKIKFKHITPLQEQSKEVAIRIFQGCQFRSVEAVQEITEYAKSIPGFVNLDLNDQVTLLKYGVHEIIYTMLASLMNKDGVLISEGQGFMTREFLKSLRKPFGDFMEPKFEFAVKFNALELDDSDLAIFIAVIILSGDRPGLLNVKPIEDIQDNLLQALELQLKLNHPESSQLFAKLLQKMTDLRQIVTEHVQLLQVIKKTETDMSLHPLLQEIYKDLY

ob/ob mice = assay: 11 day oral dosing in female ob/ob mice; assay type: in vivo; details: 1.0 mpk, once daily oral gavage for 11 days, % change compared to vehicle
Experimental: 11 Day Dosing of Example in Female, 7 week Old ob/ob Mice
(Female ob/ob mice (C57 BL/6J-Lep^ob, Jackson Labs, Bar Harbor, Me.), 7 weeks of age, were housed two per cage in solid-bottomed shoe box cages. Room temperature was maintained at 68-72° F. and humidity at 50-65%. Room lighting was on a 12-hour light/12-hour dark cycle. Mice were fed a certified NIH Rat and Mouse diet #5K50 (P M I Nutrition Int'l, St. Louis, Mo., via W. F. Fisher and Son, Inc., Bound Brook, N.J.). Food and water were supplied ad libitum.
The compound was prepared as suspensions in 0.5% hydroxypropylmethylcellulose (Dow Chemical, Midland, Mich.). The dosing volume was 10 mL/kg of body weight. Female ob/ob diabetic mice (8/group) were orally gavaged once daily for 11 days with either 0.5% methylcellulose in dH2O (vehicle) or PPAR agonist at 0.003, 0.01, 0.03, 0.1, 0.3, 1 mg/kg/day. Body weight was measured in the mornings on Day 1, prior to dosing, and on Day 12 before bleeding. 18 hours after the final dose for each group, the mice were anesthetized with CO2/O2 (70%:30%) and bled by retro-orbital sinus puncture into micro-tubes containing clog activator and then put in ice. […] Serum glucose and triglycerides were determined by using COBAS Mira Plus blood chemistry analyzer (Roche Diagnostics, N.J.). Serum insulin and free fatty acids were measured by using ALPCO insulin ELISA kit and Wako NEFA kit, respectively. […]

PPARδ = target: T2, PPARδ (Homo sapiens, UniProt Q03181); assay: Transfection Assay for PPARδ Receptors (PPAR-Gal4 / Gal4-Luciferase reporter in HEK293 cells); assay type: cell-based; details: values in square brackets
T2 construct: a Gal4-Luciferase reporter is co-transfected
T2 sequence (Q03181 171-441 limits assumed): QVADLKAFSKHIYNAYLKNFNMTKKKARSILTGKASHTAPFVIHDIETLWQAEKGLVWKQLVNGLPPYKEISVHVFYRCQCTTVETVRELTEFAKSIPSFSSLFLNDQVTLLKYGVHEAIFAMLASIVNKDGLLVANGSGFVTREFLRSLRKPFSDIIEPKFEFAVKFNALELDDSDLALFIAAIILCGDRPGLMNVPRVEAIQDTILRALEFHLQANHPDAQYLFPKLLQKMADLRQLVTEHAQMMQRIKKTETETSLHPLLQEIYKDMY
Procedure, shortened: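 HEK293 cells co-transfected with PPAR-Gal4 receptor and Gal4-luciferase reporter, then moved into 5% charcoal-treated FBS medium. Compounds applied for 24 h at 37 °C, 5% CO2; luciferase activity read with Steady-Glo.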

Q: `CCN(C(=O)Nc1ccc(OC(F)(F)F)cc1)C1CCc2cc(SC(C)(C)C(=O)O)c(F)cc2C1` (stereo not drawn) [Example 50, 2-{6-[1-Ethyl-3-(4-trifluoromethoxyphenyl)ureido]-3-fluoro-5,6,7,8-tetrahydronaphthalen-2-ylsulfanyl}-2-methylpropionic acid] was tested. Which pEC50 (PPARγ) did it give?
A: The pEC50 was less than 5.52.

Q: What about the “Δ Plasma TG” value (ob/ob mice) of the same compound?
A: Its value is −86%.

Q: What about the pEC50 (PPARδ) of the same compound?
A: The pEC50 was less than 5.52.
